According to US20250074912A1, “IMPROVED PROCESS FOR THE PREPARATION OF UPADACITINIB” (MSN LABORATORIES PRIVATE LIMITED, R&D CENTER, priority 2022, published 2025):

Experiment: Storage stability of amorphous Upadacitinib
Format: physicochemical

stability on storage (12 months at 25° C./60+5% relative humidity): stable
stability on storage (12 months at 40±2° C./75±5% relative humidity): stable
Structure (SMILES): CC[C@@H]1CN(C(=O)NCC(F)(F)F)C[C@@H]1c1cnc2cnc3[nH]ccc3n12 [Amorphous form of Upadacitinib, (3S,4R)-3-ethyl-4-(3H-imidazo[1,2-a]pyrrolo[2,3-e]pyrazin-8-yl)-N-(2,2,2-trifluoroethyl)pyrrolidine-1-carboxamide]
